Here are results for eight compounds from patent US8895054B2, “Methods for joint lubrication and cartilage wear prevention making use of glycerophospholipids” (Technion Research and Development Foundation Ltd., priority 2006, dated 2014).

The conditions of data set [1]: cited from earlier work; for Phase transition temperature (Tm): Table 1, SO to LD, phospholipid bilayers.
Data set [2] in a line: Partial specific adiabatic compressibility of the lipid bilayer. It is filed as physicochemical. The protocol: • (i) phospholipid (PL) concentration, using the modified Bartlett assay^37, 38; • (ii) size distribution, for liposomes under 1 μm by dynamic light scattering using an ALV-NIBS High Performance Particle Sizer (Langen, Germany) at a scattering angle of 173°; and for liposomes above 400 nm by light diffraction using a Beckman Coulter LS Particle Size Analyzer 13-320 (Fullerton, Calif.), equipped with polarization intensity differential scattering (PIDS) to provide a dynamic detection range from 40 nm to 2000 μm; • (iii) partial specific adiabatic compressibility, by calculation from the density of the liposome dispersion (using a DMA 5000 density meter, Anton Paar, Graz, Austria) and the velocity of an 5 MHz ultrasonic wave traveling through it (using a UCC-12 ultrasonic velocimeter, NDT Instruments, Jerusalem, Israel), as described by Garbuzenko et al.^39; and • (iv) structure, using scanning electron microscopy (SEM). Cartilage: Articular cartilage from healthy or osteoarthritis humans (aged 65 to 86 years) was obtained from femoral head fracture operations or total hip replacements. Tissue was classified as normal or pathological according to the visual diagnosis. For wear rate determination, only femoral heads with normal tissue were selected. Specimens were frozen at −20° C. until sample preparation in order to keep the mechanical properties close to those of live tissue. Pairs of cylindrical plugs, having 4 mm and 8 mm in diameter, each pair from the same region of the joint, were prepared. These cylindrical plugs, consisting of about 2 mm thick cartilage on top of about 8 mm long bone, were removed from the femoral head using a cork borer. The plugs were glued to holders through the bone part, using cyanoacrylate-based adhesive glue, leaving the cartilage projecting out of the holders. Thereafter, these plugs were refrozen at −20° C. until tested. Cartilage with completely intact and smooth surface was used. Friction and wear testing: Liposomes covering a wide range of sizes and concentrations, dispersed in HB, were screened as potential lubricants to reduce friction and wear between two discs of human cartilage at 24° C. and 37° C. […] For the a qualitative evaluation of wear, the effect of friction tests on the concentration of total PL in cartilage, and on the structure of the cartilage surface was determined. PL extraction and quantification: Total PL were extracted from cartilage specimens before and after lubrication tests, using the Bligh and Dyer extraction procedure^41, 42. […]

The conditions of data set [3]: LD phase (above Tm); cited from earlier work.
In data set [4] the test system is human articular cartilage. In words: Wear determination test (GAG content in wear debris). The settings on record: added to ISF 1:1; after run-in period; 60 N (4.8 MPa). The procedure:
• (i) phospholipid (PL) concentration, using the modified Bartlett assay^37, 38; • (ii) size distribution, for liposomes under 1 μm by dynamic light scattering using an ALV-NIBS High Performance Particle Sizer (Langen, Germany) at a scattering angle of 173°; and for liposomes above 400 nm by light diffraction using a Beckman Coulter LS Particle Size Analyzer 13-320 (Fullerton, Calif.), equipped with polarization intensity differential scattering (PIDS) to provide a dynamic detection range from 40 nm to 2000 μm; • (iii) partial specific adiabatic compressibility, by calculation from the density of the liposome dispersion (using a DMA 5000 density meter, Anton Paar, Graz, Austria) and the velocity of an 5 MHz ultrasonic wave traveling through it (using a UCC-12 ultrasonic velocimeter, NDT Instruments, Jerusalem, Israel), as described by Garbuzenko et al.^39; and • (iv) structure, using scanning electron microscopy (SEM). […] For the a qualitative evaluation of wear, the effect of friction tests on the concentration of total PL in cartilage, and on the structure of the cartilage surface was determined. PL extraction and quantification: Total PL were extracted from cartilage specimens before and after lubrication tests, using the Bligh and Dyer extraction procedure^41, 42. […]

The test system of data set [5] is joints of osteoarthritis patients. The settings on record: injection into joints of osteoarthritis patients; cited from earlier work.

Values joined by “and” are separate entries in the source; they are usually repeats but may differ in a detail not shown here. Identical values can stand only once.

Turning to `CCCCCCCCCCCCCC(=O)OCC(COP(=O)(O)OCC(O)CO)OC(=O)CCCCCCCCCCCCC` (stereo not drawn) [DMPG], the “SO-to-LD phase transition temperature, Tm” value in data set [1] is 23 °C.
For `CCCCCCCCCCCCCC(=O)OC[C@H](COP(=O)([O-])OCC[N+](C)(C)C)OC(=O)CCCCCCCCCCCCC` [DMPC, 1,2-dimyristoyl-sn-glycero-3-phosphocholine], the “partial specific adiabatic compressibility, K” value in data set [2] (24° C.) is 46.4 ×10^−6 mL/(g-atm). Also, the “partial specific adiabatic compressibility, K” value in data set [2] (37° C.) was 50.7 ×10^−6 mL/(g-atm). Besides, in data set [1], the “Phase transition temperature (Tm)” value is 23.2 °C; the “SO-to-LD phase transition temperature, Tm” value was 23.2 °C and 23 °C. Moreover, the “water molecules per headgroup” value in data set [3] is reported as ~9.7 water molecules per headgroup.
For hyaluronic acid [HA], the “reduction of constant wear rate compared with ISF alone” value in data set [4] is around 10%.
In the case of `CCCCCCCCCCCCCCCC(=O)OC[C@H](COP(=O)([O-])OCC[N+](C)(C)C)OC(=O)CCCCCCCCCCCCCCC` [DPPC, 1,2-dipalmitoyl-sn-glycero-3-phosphocholine], the “partial specific adiabatic compressibility, K” value in data set [2] (24° C.) is 28.0 ×10^−6 mL/(g-atm). The “partial specific adiabatic compressibility, K” value in data set [2] (37° C.) was 31.2 ×10^−6 mL/(g-atm). In data set [1], the “Phase transition temperature (Tm)” value was 41.4 °C and the “SO-to-LD phase transition temperature, Tm” value is 41.4 °C. For the same compound, in data set [3], the “water molecules per headgroup” value was ~9.7 water molecules per headgroup. Besides, in data set [5], the “duration of mobility improvement” value was “up to 14 weeks” and the side effects result is “without major side effects”.
On to `CCCCCCCCCCCCCCC(=O)OC[C@H](COP(=O)([O-])OCC[N+](C)(C)C)OC(=O)CCCCCCCCCCCCCC` [1,2-dipentadecanoyl-sn-glycero-3-phosphocoline], for which, in data set [1], the “SO-to-LD phase transition temperature, Tm” value is 33.0 °C.
For `CCCCCCCC/C=C\CCCCCCCC(=O)OC[C@H](COP(=O)([O-])OCC[N+](C)(C)C)OC(=O)CCCCCCC/C=C\CCCCCCCC` [DOPC, 1,2-dioleoyl-sn-glycero-3-phosphocholine], the “Phase transition temperature (Tm)” value in data set [1] is −21 °C.
As for `CCCCCCCCCCCCCCCC(=O)OCC(COP(=O)(O)OCC(O)CO)OC(=O)CCCCCCCCCCCCCCC` (stereo not drawn) [DPPG], the “SO-to-LD phase transition temperature, Tm” value in data set [1] was 41.4 °C.
For `CCCCCCCCCCCCC/C=C/[C@@H](O)[C@H](COP(=O)([O-])OCC[N+](C)(C)C)NC(=O)CCCCCCCCCCCCCCC` [N-palmitoyl SM], the “SO-to-LD phase transition temperature, Tm” value in data set [1] was 41.4 °C and 41.0 °C.
